In patent US8163901B2, “Amide derivatives as ion-channel ligands and pharmaceutical compositions and methods of using the same” (Evotec AG, priority 2008, dated 2012):

How the values were obtained:
Type in all cases: cell-based
[1] = molecular target: T1, hVR1 (Homo sapiens, UniProt Q8NER1); assay: Calcium uptake assay (FLIPR), inhibition of capsaicin-induced calcium influx
T1 construct: R710-07 (T-REx host cell line); host or cells: T-REx System cell line, called 'human keratinocyte cell line' and 'HEK 293 cells'
Description: (§1) Functional activity of compounds against the VR1 receptor was determined by measuring changes in intracellular calcium in HEK 293 cells expressing hVR1. Compounds were examined for their ability to inhibit agonist-induced calcium influx. Relative levels of [Ca^2+] were monitored in a 96-well format using a calcium-sensitive fluorescence dye and a FLIPR TETRA, Molecular Devices.
(§2) Cells that express high levels of VR1 were obtained by generation of a cell line from human keratinocytes with heterologous expression of VR1 under control of an inducible promoter. Specifically, cells expressing human VR1 under the control of the human cytomegalovirus immediate-early (CMV) promoter and two tetracycline operator 2 (TetO2) sites were made using the T-REx System (Invitrogen, Carlsbad, Calif., USA). Details and methods concerning this system are published (Hum. Gene Ther. 9, pp. 1939-1950, 1998; Annu. Rev. Microbiol. 48, pp. 345-369, 1994; Mol. Biol. 169, pp. 707-'721, 1983). Human VR1 was subcloned into the T-REx System pcDNA5/TO vector (Invitrogen Cat# V1033-20) which was transfected into the T-REx System human keratinocyte cell line (Invitrogen Cat# R710-07) from which a stable cell line was established which expresses VR1 after induction by exposure to tetracycline or doxycycline (Hum. Gene Ther. 9, pp. 1939-1950, 1998; instructions that come with purchase of products noted above). Cells were maintained in a CO2 incubator (5% CO2) at 37° C. in culture medium containing DMEM with phenol red (Mediatech Cat #: 15-017-CV) supplemented with 10% heat-inactivated Fetal Bovine Serum, 5% Penicillin-streptomycin (Mediatech Cat #: 30-002-CI), 5% Glutamax® (L-Alanyl-L-Glutamine, Mediatech Cat #: 25-015-CI), 200 μg/ml hygromycin (Mediatech #:30-240-CR), 0.5 μg/ml blasticidin (Invitrogen #46-1120)).
(§3) For assay preparation, cells expressing human VR1 as described above were plated in 96-well plates (Becton Dickinson [BD] poly-D-lysine coated 96-well plates, cat #356692) at 55,000 cells per well in culture media (described above) that also contained 1 ug/ml doxycycline. Plated cells were then placed in an incubator (5% CO2) and incubated for 20-26 hours at 37° C., until the cells had grown to near confluency. Media was then aspirated from cells and 50 uL of dye-containing buffer (from Molecular Devices FLIPR Calcium 4 Assay kit, cat# R8141) was added to each well. Cells were then left in the dark at room temperature for 1.5-2 hours. Cell plates were then placed in the FLIPR TETRA (Molecular Devices, CA, USA). Test compounds and agonists were added to wells using the liquid handling capability of the FLIPR TETRA. Calcium responses of the cells were monitored by fluorescence readout of dye signal. Test compounds in saline (130 mM NaCl, 17 g/L sucrose, 1.8 g/L glucose, 8.8 mM HEPES, 3 mM KCl, 0.60 mM MgCl, 1.0 mM CaCl2; adjust to pH 7.4 using NaOH; 0.03% BSA added on the day of the experiment), or vehicle control in saline, were pre-incubated at the desired final concentrations in the dark at room temperature for 2 or 30 minutes with cells already containing the above mentioned dye buffer (dye solution was diluted 1:1 in culture wells with saline containing 2× the final concentration of test compound). […] Another agonist was protons via a low pH solution (saline solution described above plus 10 mM citric acid buffered to pH 5.7 with HCl instead of buffering to a neutral pH with NaOH as done for normal saline). Compounds were tested at various concentration ranges, depending upon potency of compound. After the 2 minute or 30 minute compound pre-treatment, treatment solution was then added to cells by adding a volume of treatment solution equal to the pretreatment solution already on the cells.

[2] = molecular target: T1, hVR1; assay: Calcium uptake assay (FLIPR), inhibition of low pH (proton)-induced calcium influx; conditions: agonist protons, low pH solution pH 5.7; cells expressing hVR1
Description: as §1, §2
as §3, with “compound). Compound IC50 experiments were run using an agonist concentration at or near the EC50 of the agonist.” for “compound).”, “cells. […]” for “cells.”

[3] = molecular target: T1, hVR1; assay: Determination of pA2 values against capsaicin stimulation (Ca2+ imaging, Schild analysis)
Description: Changes in the fluorescence signal (λex=470-495 nm, λem=515-575 nm) are monitored throughout the experiment before agonist addition and for at least 2 min after agonist addition (enough time for the fluorescence response to reach and then decline from the absolute maximum, agonist-induced signal attained). For each well, final relative fluorescence units (RFUs) are calculated as the difference between the maximum fluorescence signal obtained in the experiment after agonist addition and the signal level seen at baseline before agonist, but after antagonist, addition (the absolute minimum level of fluorescence signal observed in the 10 seconds prior to agonist addition). […] Data are fit to an ideal curve utilizing the 4-parameter sigmoid curve-fit function in GraphPad Prism software (version 4, GraphPad Software, Inc., San Diego, Calif., USA) from which an EC50 value is obtained. […] For each antagonist, at least three concentrations are tested. Dose Ratio values are then used to make a standard Schild plot—log [antagonist concentration] plotted against log [DR−1], see Kenakin reference above for theoretical background and method. A linear regression curve-fit is then performed on these plotted points. […] If these conditions are not met, then the antagonist is rerun in a pA2 assay using different antagonist concentrations until the above conditions are met.

T1 sequence (Q8NER1 whole entry): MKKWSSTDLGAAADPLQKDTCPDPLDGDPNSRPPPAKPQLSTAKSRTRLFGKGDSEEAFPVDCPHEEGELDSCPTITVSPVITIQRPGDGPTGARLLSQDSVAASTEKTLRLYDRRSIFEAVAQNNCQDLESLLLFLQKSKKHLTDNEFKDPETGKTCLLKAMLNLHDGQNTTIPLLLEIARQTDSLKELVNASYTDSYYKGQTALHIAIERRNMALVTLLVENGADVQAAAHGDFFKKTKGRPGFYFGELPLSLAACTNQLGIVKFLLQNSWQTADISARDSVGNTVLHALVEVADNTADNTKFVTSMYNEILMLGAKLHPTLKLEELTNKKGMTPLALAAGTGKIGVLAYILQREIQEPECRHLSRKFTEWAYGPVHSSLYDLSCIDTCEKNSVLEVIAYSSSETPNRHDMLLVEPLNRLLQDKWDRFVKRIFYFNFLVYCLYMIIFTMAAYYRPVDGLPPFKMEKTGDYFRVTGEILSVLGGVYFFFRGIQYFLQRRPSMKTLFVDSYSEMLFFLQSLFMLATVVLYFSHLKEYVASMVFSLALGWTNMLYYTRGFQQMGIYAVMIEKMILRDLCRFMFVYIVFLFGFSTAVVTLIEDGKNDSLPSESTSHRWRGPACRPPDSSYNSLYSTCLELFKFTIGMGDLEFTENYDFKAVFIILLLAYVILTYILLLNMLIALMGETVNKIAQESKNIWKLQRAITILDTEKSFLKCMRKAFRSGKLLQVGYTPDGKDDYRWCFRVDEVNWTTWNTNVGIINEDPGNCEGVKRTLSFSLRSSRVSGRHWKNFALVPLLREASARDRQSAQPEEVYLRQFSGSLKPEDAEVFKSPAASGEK

| IC50 [1] [µM] | IC50 [2] [nM] | Kb [3] [µM] | Compound |
| --- | --- | --- | --- |
| 0.019 | 18 | 0.00505 | CC(C)(c1ccc2c(n1)CC[C@@H](C(=O)Nc1cnc3sc(CO)nc3c1)C2)C(F)(F)F [Compound 15, (R)-2-(2,2,2-Trifluoro-1,1-dimethyl-ethyl)-5,6,7,8-tetrahydro-quinoline-6-carboxylic acid (2-hydroxymethyl-thiazolo[5,4-b]pyridin-6-yl)-amide] |
| 0.009 | 67 | 0.017 | CC(C)(c1ccc2c(n1)CC[C@H](C(=O)Nc1cnc3c(c1)COCC3)C2)C(F)(F)F (single isomer, unassigned) [Compound 19] |
| 0.002 | 9 | 0.00591 | CC(=O)N1CCc2ccc(NC(=O)[C@@H]3CCc4nc(C(C)(C)C(F)(F)F)ccc4C3)cc21 [Compound 23, (R)-2-(2,2,2-Trifluoro-1,1-dimethyl-ethyl)-5,6,7,8-tetrahydro-quinoline-6-carboxylic acid (1-acetyl-2,3-dihydro-1H-indol-6-yl)-amide] |
| 0.009 | 23 | 0.00179 | C[C@@H](NC(=O)[C@@H]1CCc2nc(C(C)(C)C(F)(F)F)ccc2C1)c1ccc2[nH]ncc2c1 [Compound 11, (R)-2-(2,2,2-Trifluoro-1,1-dimethyl-ethyl)-5,6,7,8-tetrahydro-quinoline-6-carboxylic acid [(R)-1-(1H-indazol-5-yl)-ethyl]-amide] |
| 0.006 | 18 | 0.032 | CC(C)(c1ccc2c(n1)CC[C@@H](C(=O)Nc1cnc3c(c1)COCC3)C2)C(F)(F)F (single isomer, unassigned) [Compound 18] |
| 0.042 | 117 | 0.0347 | CC(NC(=O)C1CN(C)c2cc(C(F)(F)F)ccc2O1)c1ccc2[nH]ncc2c1 (mixture of isomers) [Compound 9, 4-Methyl-6-trifluoromethyl-3,4-dihydro-2H-benzo[1,4]oxazine-2-carboxylic acid [1-(1H-indazol-5-yl)ethyl]amide] |
| 0.002 | 6 | 0.000208 | C[C@@H](NC(=O)[C@H]1CCc2nc(C(C)(C)C(F)(F)F)ccc2C1)c1ccc2[nH]ncc2c1 [Compound 12, (S)-2-(2,2,2-Trifluoro-1,1-dimethyl-ethyl)-5,6,7,8-tetrahydro-quinoline-6-carboxylic acid [(R)-1-(1H-indazol-5-yl)-ethyl]-amide] |
| 0.029 | 226 | 0.0161 | CC(NC(=O)[C@H]1COc2cc(C(C)(C)C)ccc2O1)c1ccc2[nH]ncc2c1 (single isomer, unassigned) [Compound 7] |
